Earlier results in patent US20220211813A1, “METHODS FOR TREATMENT OF NIEMANN-PICK DISEASE TYPE C” (LOMA LINDA UNIVERSITY, priority 2019, published 2022).

System: IFN-γ
Details: as described in Pododlin et al. J Pharmacol Exp Ther. 312(1):373-81, 2005

## NC(=O)Nc1sc(-c2ccc(F)cc2)cc1C(N)=O [TPCA-1]
  blocks IFN-γ: about 50%
